Values quoted from earlier work in patent EP0557244B1, “Dosage forms having prolonged active-ingredient release” (Siegfried Pharma AG, priority 1992, dated 1993).
Like-named read-outs stand apart in the source and are kept apart here.

[1] = 20 mg of crystalline nifedipine, Pabst et al.
[2] = 20 mg of dissolved nifedipine in capsules, Pabst et al.

Compound: COC(=O)C1=C(C)NC(C)=C(C(=O)OC)C1c1ccccc1[N+](=O)[O-] [nifedipine]
- plasma level peaks [1]: about 40 ng/ml
- time of plasma level peaks [1]: about 1.5 hours
- plasma level peaks [2]: about 200 ng/ml
- time of plasma level peaks [2]: about 30 minutes
- plasma level peaks (tablet containing 40 mg of nifedipine (EP 220 760), initially): more than 60 ng/ml
